# Assays:
# U937 cells = test: Cellular assay in U937 cells: activity of RIPK1 inhibitors on TNFα/zVAD.fmk-induced cell death (necroptosis), CellTiter 96 AQueous (MTS) readout; assay type: cell-based; conditions: Homo sapiens, U-937
# Outline: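 Necroptosis was measured by viable-cell MTS reduction (4 h, absorbance 490 nm) after overnight (18–24 h) 37° C culture. Cell suspensions of U937 cells carried TNFα (100 ng/ml) plus zVAD.fmk (50 μM) before compound was added. A 10-point curve (10 μM–0.26 nM or 1 μM–0.07 nM) was run in duplicate, normalised to the control lacking TNFα/zVAD.fmk.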
# [1] = target: T1, hRIPK1 (aa 1-375) fusion protein (Homo sapiens, UniProt Q13546); test: ADP-Glo kinase assay: catalytic activity of RIPK1 (autophosphorylation, conversion of ATP to ADP); assay type: biochemical
# T1 construct: hRIPK1 (aa 1-375) fusion protein
# T1 sequence (Q13546 1-375): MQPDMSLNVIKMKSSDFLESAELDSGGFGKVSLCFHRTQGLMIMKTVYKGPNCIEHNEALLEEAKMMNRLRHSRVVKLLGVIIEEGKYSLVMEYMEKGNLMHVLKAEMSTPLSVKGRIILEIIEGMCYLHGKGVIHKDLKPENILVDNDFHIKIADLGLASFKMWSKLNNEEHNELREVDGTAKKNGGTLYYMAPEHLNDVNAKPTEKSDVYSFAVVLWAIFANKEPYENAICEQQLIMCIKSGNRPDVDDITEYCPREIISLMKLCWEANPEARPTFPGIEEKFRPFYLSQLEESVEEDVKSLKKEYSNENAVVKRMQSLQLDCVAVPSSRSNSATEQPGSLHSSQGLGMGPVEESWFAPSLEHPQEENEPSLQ
# Outline: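 The readout was ADP-Glo luminescence after a 240 min rt autophosphorylation reaction with 50 μM ATP, following 30 min preincubation of 3.6 μg/ml hRIPK1 (aa 1-375) fusion with compound at 33300-1.69 nM final in 1% DMSO. Values came from Levenberg-Marquardt nonlinear fits.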
Compound,IC50 (U937 cells),IC50 [1]
"Cc1nc2ccc(C[C@H]3CC[C@H](C(=O)N4OCC[C@H]4c4cnccn4)CC3)cn2n1 [compound 222, trans-[4-[(2-methyl-[1,2,4]triazolo[1,5-a]pyridin-6-yl)methyl]cyclohexyl]-[(3S)-3-pyrazin-2-ylisoxazolidin-2-yl]methanone]",48 nM,37 nM
"Cc1nc2ccc(C[C@H]3CC[C@H](C(=O)N4OCC[C@H]4c4cc(F)cc(F)c4)CC3)cn2n1 [compound 223, trans-[(3S)-3-(3,5-difluorophenyl)isoxazolidin-2-yl]-[4-[(2-methyl-[1,2,4]triazolo[1,5-a]pyridin-6-yl)methyl]cyclohexyl]methanone]",5 nM,19 nM
"Cc1nnc2ccc(C[C@H]3CC[C@H](C(=O)N4OCC[C@H]4c4cc(F)cc(C#N)c4)CC3)cn12 [compound 224, trans-3-fluoro-5-[(3S)-2-[4-[(3-methyl-[1,2,4]triazolo[4,3-a]pyridin-6-yl)methyl]cyclohexanecarbonyl]isoxazolidin-3-yl]benzonitrile]",17 nM,35 nM
"Cc1cn2cc(C[C@H]3CC[C@H](C(=O)N4OCC[C@H]4c4cc(F)cc(C#N)c4)CC3)ccc2n1 [compound 225, trans-3-fluoro-5-[(3S)-2-[4-[(2-methylimidazo[1,2-a]pyridin-6-yl)methyl]cyclohexanecarbonyl]isoxazolidin-3-yl]benzonitrile]",7 nM,19 nM
"Cc1cn2cc(C[C@H]3CC[C@H](C(=O)N4OCC[C@H]4c4cnccn4)CC3)ccc2n1 [compound 226, trans-[4-[(2-methylimidazo[1,2-a]pyridin-6-yl)methyl]cyclohexyl]-[(3S)-3-pyrazin-2-ylisoxazolidin-2-yl]methanone]",40 nM,44 nM
"Cc1cn2cc(C[C@H]3CC[C@H](C(=O)N4OCC[C@H]4c4cc(F)cc(F)c4)CC3)ccc2n1 [compound 227, trans-[(3S)-3-(3,5-difluorophenyl)isoxazolidin-2-yl]-[4-[(2-methylimidazo[1,2-a]pyridin-6-yl)methyl]cyclohexyl]methanone]",5 nM,23 nM
"Cn1cc(C[C@H]2CC[C@H](C(=O)N3OCC[C@H]3c3cncc(C#N)c3)CC2)cn1 [compound 235, trans-5-[(3S)-2-[4-[(1-methylpyrazol-4-yl)methyl]cyclohexanecarbonyl]isoxazolidin-3-yl]pyridine-3-carbonitrile]",152 nM,35 nM
"Cn1cc(C[C@H]2CC[C@H](C(=O)N3OCC[C@H]3c3cc(F)cc(F)c3)CC2)cn1 [compound 236, trans-[(3S)-3-(3,5-difluorophenyl)isoxazolidin-2-yl]-[4-[(1-methylpyrazol-4-yl)methyl]cyclohexyl]methanone]",4 nM,20 nM
"Cn1nccc1C[C@H]1CC[C@H](C(=O)N2OCC[C@H]2c2cc(F)cc(C#N)c2)CC1 [compound 237, trans-3-fluoro-5-[(3S)-2-[4-[(2-methylpyrazol-3-yl)methyl]cyclohexanecarbonyl]isoxazolidin-3-yl]benzonitrile]",66 nM,23 nM
"Cn1nccc1C[C@H]1CC[C@H](C(=O)N2OCC[C@H]2c2cnccn2)CC1 [compound 238, trans-[4-[(2-methylpyrazol-3-yl)methyl]cyclohexyl]-[(3S)-3-pyrazin-2-ylisoxazolidin-2-yl]methanone]",257 nM,41 nM
"Cc1nc(C[C@H]2CC[C@H](C(=O)N3OCC[C@H]3c3cc(F)cc(C#N)c3)CC2)cs1 [compound 239, trans-3-fluoro-5-[(3S)-2-[4-[(2-methylthiazol-4-yl)methyl]cyclohexanecarbonyl]isoxazolidin-3-yl]benzonitrile]",5 nM,27 nM
"Cc1nc(C[C@H]2CC[C@H](C(=O)N3OCC[C@H]3c3cnccn3)CC2)cs1 [compound 240, trans-[4-[(2-methylthiazol-4-yl)methyl]cyclohexyl]-[(3S)-3-pyrazin-2-ylisoxazolidin-2-yl]methanone]",52 nM,27 nM
"COc1cncc([C@@H]2CCON2C(=O)[C@H]2CC[C@H](Cn3ccc4ccc(C#N)cc43)CC2)n1 [compound 241, trans-1-[[4-[(3S)-3-(6-methoxypyrazin-2-yl)isoxazolidine-2-carbonyl]cyclohexyl]methyl]indole-6-carbonitrile]",28 nM,148 nM
"N#Cc1cc(C[C@H]2CC[C@H](C(=O)N3OCC[C@H]3c3ccc(F)cc3)CC2)ccc1F [compound 242, trans-2-fluoro-5-[[4-[(3S)-3-(4-fluorophenyl)isoxazolidine-2-carbonyl]cyclohexyl]methyl]benzonitrile]",16 nM,21 nM
"N#Cc1cc(C[C@H]2CC[C@H](C(=O)N3OCC[C@H]3c3cnccn3)CC2)ccc1F [compound 243, trans-2-fluoro-5-[[4-[(3S)-3-pyrazin-2-ylisoxazolidine-2-carbonyl]cyclohexyl]methyl]benzonitrile]",3 nM,13 nM
"N#Cc1cc(F)cc([C@@H]2CCON2C(=O)[C@H]2CC[C@H](Cc3cnccn3)CC2)c1 [compound 245, trans-3-fluoro-5-[(3S)-2-[4-(pyrazin-2-ylmethyl)cyclohexanecarbonyl]isoxazolidin-3-yl]benzonitrile]",16 nM,17 nM
"O=C([C@H]1CC[C@H](Cc2cnccn2)CC1)N1OCC[C@H]1c1cnccn1 [compound 246, trans-[(3S)-3-pyrazin-2-ylisoxazolidin-2-yl]-[4-(pyrazin-2-ylmethyl)cyclohexyl]methanone]",918 nM,150 nM
"N#Cc1cc(F)cc([C@@H]2CCON2C(=O)[C@H]2CC[C@H](Cc3cncnc3)CC2)c1 [compound 247, trans-3-fluoro-5-[(3S)-2-[4-(pyrimidin-5-ylmethyl)cyclohexanecarbonyl]isoxazolidin-3-yl]benzonitrile]",136 nM,22 nM
"O=C([C@H]1CC[C@H](Cc2cncnc2)CC1)N1OCC[C@H]1c1cnccn1 [compound 248, trans-[(3S)-3-pyrazin-2-ylisoxazolidin-2-yl]-[4-(pyrimidin-5-ylmethyl)cyclohexyl]methanone]",666 nM,73 nM
"Cc1cc(C[C@H]2CC[C@H](C(=O)N3OCC[C@H]3c3cc(F)cc(C#N)c3)CC2)cn2ncnc12 [compound 249, trans-3-fluoro-5-[(3S)-2-[4-[(8-methyl-[1,2,4]triazolo[1,5-a]pyridin-6-yl)methyl]cyclohexanecarbonyl]-1,2-oxazolidin-3-yl]benzonitrile]",5 nM,18 nM
"Cc1cc(C[C@H]2CC[C@H](C(=O)N3OCC[C@H]3c3cnccn3)CC2)cn2ncnc12 [compound 250, trans-[4-[(8-methyl-[1,2,4]triazolo[1,5-a]pyridin-6-yl)methyl]cyclohexyl]-[(3S)-3-pyrazin-2-yl-1,2-oxazolidin-2-yl]methanone]",17 nM,16 nM
"NC(=O)c1ccc2c(ccn2C[C@H]2CC[C@H](C(=O)N3OCC[C@H]3c3cnccn3)CC2)c1 [compound 251, trans-1-[[4-[(3S)-3-pyrazin-2-ylisoxazolidine-2-carbonyl]cyclohexyl]methyl]indole-5-carboxamide]",17 nM,8 nM
"N#Cc1cncc([C@@H]2CCON2C(=O)[C@H]2CC[C@H](Cn3ccc4cc(C(N)=O)ccc43)CC2)c1 [compound 252, trans-1-[[4-[(3S)-3-(5-cyano-3-pyridyl)isoxazolidine-2-carbonyl]cyclohexyl]methyl]indole-5-carboxamide]",54 nM,17 nM
"COc1cncc([C@@H]2CCON2C(=O)[C@H]2CC[C@H](Cn3ccc4cc(C(N)=O)ccc43)CC2)n1 [compound 253, trans-1-[[4-[(3S)-3-(6-methoxypyrazin-2-yl)isoxazolidine-2-carbonyl]cyclohexyl]methyl]indole-5-carboxamide]",175 nM,18 nM
"Cc1nc([C@@H]2CCON2C(=O)[C@H]2CC[C@H](Cn3ccc4cc(C(N)=O)ccc43)CC2)cs1 [compound 254, trans-1-[[4-[(3S)-3-(2-methylthiazol-4-yl)isoxazolidine-2-carbonyl]cyclohexyl]methyl]indole-5-carboxamide]",96 nM,20 nM
"NC(=O)c1ccc2c(ccn2C[C@H]2CC[C@H](C(=O)N3OCC[C@H]3c3ccccn3)CC2)c1 [compound 255, trans-1-[[4-[(3S)-3-(2-pyridyl)isoxazolidine-2-carbonyl]cyclohexyl]methyl]indole-5-carboxamide]",521 nM,25 nM
"N#Cc1cncc([C@@H]2CCON2C(=O)[C@H]2CC[C@H](Cc3cc(F)cc(CO)c3)CC2)c1 [compound 257, trans-5-[(3S)-2-[4-[[3-fluoro-5-(hydroxymethyl)phenyl]methyl]cyclohexanecarbonyl]isoxazolidin-3-yl]pyridine-3-carbonitrile]",2 nM,10 nM

# Reference: patent publication US20260158009A1 (GENZYME CORPORATION, priority 2023, published 2026)
